Assays:
[1] = Acute hepatotoxicity assay: plasma liver markers (ALT, AST, TBIL) in mice; type: in vivo, Swiss mice; settings: for ALT / AST / TBil: plasma, 24 h after single intraperitoneal administration; for hepatotoxicity: single intraperitoneal administration, liver markers 24 h later, compared to vehicle-treated group
Method: Acute hepatotoxicity assays were performed in Swiss mice. Animals received a single administration of either vehicle, or Fingolimod or a compound of the present invention (compounds from the list indicated previously) by intraperitoneal route. Twenty-four hours later, animals were sacrificed and the levels of liver markers ALT (alanine aminotransferase), AST (aspartate aminotransferase), and TBIL (total bilirubin) in plasma were determined. An increase in liver markers in this model indicates the potential of that compound to cause liver toxicity in humans at lower doses following longer exposures. Table 2: Plasma levels of liver markers of mice 24 h after treatment with either vehicle or test compounds No.142, No.171 or fingolimod.

lymphocytes in blood = experiment: Recovery of lymphopenia in rats after a single oral administration; type: in vivo; settings: Wistar rats, single oral dose that caused maximal lymphopenia
Method: Test compounds were administered by oral route to Wistar rats at a dose of each compound that caused maximal lymphopenia. At several times after administration, animals were anestesized and blood extracted from retroorbital plexus and collected into heparinized tubes. Total lymphocyte numbers were determined using a Sysmex K-800 haemocytometer. [formula]

in vivo = settings: Wistar, rat, iv, 1 mg/kg
Method: Rats were administered with 1 mg/kg of test compounds by intraveneous route to Wistar rats. Blood samples were collected from retroorbital plexus at several time points after administration and plasma levels of compounds were quantified by MS-HPLC.

S1P1 receptor = S1P1 receptor (Homo sapiens, UniProt P21453); experiment: 35S-GTPyS binding assay; type: biochemical; settings: membranes, 90 min at room temperature
Chain of S1P1 receptor (P21453 whole entry): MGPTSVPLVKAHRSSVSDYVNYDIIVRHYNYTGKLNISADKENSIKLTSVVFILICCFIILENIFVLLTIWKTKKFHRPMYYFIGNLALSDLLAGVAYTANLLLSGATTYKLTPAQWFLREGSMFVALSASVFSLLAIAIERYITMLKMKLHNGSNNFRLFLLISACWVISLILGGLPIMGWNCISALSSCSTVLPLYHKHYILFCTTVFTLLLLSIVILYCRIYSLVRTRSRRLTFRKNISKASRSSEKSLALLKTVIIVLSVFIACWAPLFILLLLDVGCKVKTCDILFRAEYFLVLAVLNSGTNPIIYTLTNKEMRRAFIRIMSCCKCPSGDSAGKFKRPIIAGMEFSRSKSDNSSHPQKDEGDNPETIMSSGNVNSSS
Method: The effect of the compounds was measured using a 35S-GTPyS binding assay. Briefly, membranes were incubated in a buffer containing 20 mM HEPES pH 7.4, 100 mM NaCl, 10 mM MgCl2, 10µM GDP, 50µg/ml saponin and 0.2% fatty acid-free BSA at various concentrations (0.1nM-10µM) and 0.1nM 35S-GTPyS. 10µM […] was used as 100% maximum efficacy. The assay was incubated for 90 min at room temperature with gentle mixing, and terminated by filtrating the reaction mixture through GF/C filter plates using the Manifold Filtration System. The filters were immediately washed with sodium phosphate pH 7.4 buffers. After drying the filter plates scintillant liquid were added to each well and 35S-GTPyS binding was measured on a Trilux Scintillation Counter.

SMILES	ALT ([1]; 30 mg/kg)	AST ([1]; 30 mg/kg)	TBil ([1]; 30 mg/kg)	ALT ([1]; 100 mg/kg)	AST ([1]; 100 mg/kg)	TBil ([1]; 100 mg/kg)	hepatotoxicity [1]	time after administration to recover lymphocytes in blood (lymphocytes in blood)	AUC(0-t) (in vivo)	Cmax (in vivo)	Tmax (in vivo)	half-life (in vivo)	EC50 (S1P1 receptor)
CCCCCCCCc1ccc(CCC(N)(CO)CO)cc1 [Fingolimod, reference compound]	59 ± 62 IU/L	354 ± 70 IU/L	0.12 ± 0.01 mg/dL	355 ± 60 IU/L	589 ± 73 IU/L	0.16 ± 0.02 mg/dL	high hepatotoxicity	144 h	279 ng·h/mL	50.5 ng/mL	6 min	26.1 h	
Cc1cc(-c2noc(-c3nn(C)c4c3CCC(C)(C)C4)n2)cc(C)c1CCN1CCC(C(=O)O)CC1 [Compound 142, 1-(2-{2,6-dimethyl-4-[5-(1,6,6-trimethyl-4,5,6,7-tetrahydro-1H-indazol-3-yl)-1,2,4-oxadiazol-3-yl]phenyl}ethyl)piperidine-4-carboxylic acid]				45 ± 5 IU/L	87 ± 9 IU/L	0.3 ± 0.1 mg/dL	lack of hepatotoxicity		2630 ng·h/mL	824 ng/mL	6 min	3.5 h	8.7 nM
Cn1nc(-c2nc(-c3ccc(CCN4CCC(C(=O)O)CC4)c(C(F)(F)F)c3)no2)c2c1CC(C)(C)CC2 [Compound 171, 1-(2-{2-(trifluoromethyl)-4-[5-(1,6,6-trimethyl-4,5,6,7-tetrahydro-1H-indazol-3-yl)-1,2,4-oxadiazol-3-yl]phenyl}ethyl)piperidine-4-carboxylic acid]				42 ± 13 IU/L	66 ± 7 IU/L	0.5 ± 0.04 mg/dL	lack of hepatotoxicity		6230 ng·h/mL	986 ng/mL	6 min	8.2 h	18.8 nM
